According to the supplement of paper PMC11451515:

How the values were obtained:
Conditions in all cases: 48 h
SEM cells [1] = assay: cell viability relative to DMSO control; higher = less cytotoxic
How it was run: (§1)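 NOMO1 or SEM cells were plated at 500 cells/well and P12-Ichikawa cells at 1000 cells/well in 1536-well plates (5 μl), after each leukemia line had been adapted for at least four passages in each medium. Pin dosing delivered library compounds in DMSO at 11 threefold concentrations, 47 μM to 0.79 nM. CellTiter-Glo One luminescence was read after 48 h at 37°C. Viability is reported as a per-plate percentage of DMSO wells, with cell-free wells as background.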

NOMO1 [2] = assay: as above
How it was run: as §1

P12-Ichikawa [3] = assay: as above
How it was run: as §1

NOMO1 [4] = assay: AUC of viability dose-response curve (% viability x log10 dose units); higher = less sensitive
How it was run: (§2)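 In 1536-well plates, leukemia cells adapted to each medium (500 or 1000 cells/well) were exposed for 48 h at 37°C to library compounds in DMSO across 11 threefold doses, 47 μM down to 0.79 nM. Viability was read by CellTiter-Glo One luminescence and normalised per plate to DMSO and cell-free wells. A four-parameter log-logistic fit over log10 doses was integrated by trapezoidal rule. This yielded the area under the curve, with over-full-viability curves scaled and quality-control failures dropped.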

P12-Ichikawa [5] = assay: as above
How it was run: as §2

SEM cells [6] = assay: as above
How it was run: as §2

COc1cc([C@@H]2c3cc4c(cc3[C@H](O)[C@H]3COC(=O)[C@H]23)OCO4)cc(OC)c1OC
cell viability [%]
Conditions | NOMO1 [2] | P12-Ichikawa [3] | SEM cells [1]
HPLM + 10% dialyzed FBS, 0.000781 µM | 82.2 | 87.8 | 78.4
HPLM + 10% dialyzed FBS, 0.00234 µM | 54.7 | 39.1 | 52.4
HPLM + 10% dialyzed FBS, 0.00702 µM | 43.6 | 12.4 | 20
HPLM + 10% dialyzed FBS, 0.0211 µM | 37.9 | 7.37 | 21.5
HPLM + 10% dialyzed FBS, 0.0632 µM | 24.6 | 7 | 12.9
HPLM + 10% dialyzed FBS, 0.19 µM | 30.1 | 8.5 | 14.8
HPLM + 10% dialyzed FBS, 0.569 µM | 33.9 | 7.63 | 11.1
HPLM + 10% dialyzed FBS, 1.71 µM | 38.5 | 8.21 | 10.8
HPLM + 10% dialyzed FBS, 5.12 µM | 29.4 | 6.81 | 7.23
HPLM + 10% dialyzed FBS, 15.4 µM | 30.6 | 5.69 | 6.55
HPLM + 10% dialyzed FBS, 46.1 µM | 5.9 | 2.44 | 3.29
RPMI 5 mM glucose + 10% FBS, 0.000781 µM | 76.2 | 84.9 | 102
RPMI 5 mM glucose + 10% FBS, 0.00234 µM | 92.9 | 45.4 | 38.7
RPMI 5 mM glucose + 10% FBS, 0.00702 µM | 17.5 | 15.6 | 14.9
RPMI 5 mM glucose + 10% FBS, 0.0211 µM | 21.1 | 9.29 | 18.2
RPMI 5 mM glucose + 10% FBS, 0.0632 µM | 12.1 | 7.32 | 8.76
RPMI 5 mM glucose + 10% FBS, 0.19 µM | 19.2 | 7.35 | 10.5
RPMI 5 mM glucose + 10% FBS, 0.569 µM | 17.5 | 6.22 | 7.96
RPMI 5 mM glucose + 10% FBS, 1.71 µM | 18.5 | 5.7 | 7.03
RPMI 5 mM glucose + 10% FBS, 5.12 µM | 16.4 | 5.67 | 4.97
RPMI 5 mM glucose + 10% FBS, 15.4 µM | 18.5 | 4.24 | 4.12
RPMI 5 mM glucose + 10% FBS, 46.1 µM | 5.06 | 1.48 | 3.41
RPMI 5 mM glucose + 10% dialyzed FBS, 0.000781 µM | 78.5 | 84 | 79.2
RPMI 5 mM glucose + 10% dialyzed FBS, 0.00234 µM | 89.8 | 41.4 | 52.7
RPMI 5 mM glucose + 10% dialyzed FBS, 0.00702 µM | 26.2 | 19.7 | 16.7
RPMI 5 mM glucose + 10% dialyzed FBS, 0.0211 µM | 23.7 | 11.7 | 20.1
RPMI 5 mM glucose + 10% dialyzed FBS, 0.0632 µM | 16.9 | 6.34 | 7.53
RPMI 5 mM glucose + 10% dialyzed FBS, 0.19 µM | 24.8 | 8.83 | 9.95
RPMI 5 mM glucose + 10% dialyzed FBS, 0.569 µM | 20.2 | 7.96 | 7.34
RPMI 5 mM glucose + 10% dialyzed FBS, 1.71 µM | 18.2 | 7.78 | 6.19
RPMI 5 mM glucose + 10% dialyzed FBS, 5.12 µM | 17.9 | 7.21 | 4.79
RPMI 5 mM glucose + 10% dialyzed FBS, 15.4 µM | 18.9 | 5.34 | 3.29
RPMI 5 mM glucose + 10% dialyzed FBS, 46.1 µM | 6.11 | 2.45 | 3.02

AUC of viability dose-response curve
Conditions | HPLM + 10% dialyzed FBS | RPMI 5 mM glucose + 10% FBS | RPMI 5 mM glucose + 10% dialyzed FBS
NOMO1 [4] | 170 | 126 | 138
P12-Ichikawa [5] | 69.5 | 70.5 | 75.2

Cc1ccnc(N[S+](=O)([O-])c2ccc(NC(=O)Nc3ccc([S+](=O)([O-])Nc4nccc(C)n4)cc3)cc2)n1
cell viability [%]
Conditions | NOMO1 [2] | P12-Ichikawa [3] | SEM cells [1]
HPLM + 10% dialyzed FBS, 0.000781 µM | 100 | 92.4 | 77.9
HPLM + 10% dialyzed FBS, 0.00234 µM | 99.6 | 97.5 | 90.3
HPLM + 10% dialyzed FBS, 0.00702 µM | 99.3 | 104 | 89.8
HPLM + 10% dialyzed FBS, 0.0211 µM | 101 | 108 | 90.1
HPLM + 10% dialyzed FBS, 0.0632 µM | 107 | 102 | 86.8
HPLM + 10% dialyzed FBS, 0.19 µM | 20.8 | 47.4 | 38.8
HPLM + 10% dialyzed FBS, 0.569 µM | 37.1 | 56.9 | 35.6
HPLM + 10% dialyzed FBS, 1.71 µM | 7.33 | 7.44 | 10.6
HPLM + 10% dialyzed FBS, 5.12 µM | 6.39 | 8.58 | 8.5
HPLM + 10% dialyzed FBS, 15.4 µM | 4.89 | 9.29 | 7.84
HPLM + 10% dialyzed FBS, 46.1 µM | 2.2 | 7.33 | 6.37
RPMI 5 mM glucose + 10% FBS, 0.000781 µM | 97.6 | 87.9 | 86.6
RPMI 5 mM glucose + 10% FBS, 0.00234 µM | 83.9 | 85.5 | 73.1
RPMI 5 mM glucose + 10% FBS, 0.00702 µM | 83.5 | 94.6 | 79.4
RPMI 5 mM glucose + 10% FBS, 0.0211 µM | 90.1 | 106 | 75.2
RPMI 5 mM glucose + 10% FBS, 0.0632 µM | 86.6 | 114 | 64.8
RPMI 5 mM glucose + 10% FBS, 0.19 µM | 36 | 58.6 | 9.99
RPMI 5 mM glucose + 10% FBS, 0.569 µM | 53.1 | 60.3 | 8.62
RPMI 5 mM glucose + 10% FBS, 1.71 µM | 7.07 | 7.51 | 6.14
RPMI 5 mM glucose + 10% FBS, 5.12 µM | 5.88 | 7.48 | 6.29
RPMI 5 mM glucose + 10% FBS, 15.4 µM | 4.91 | 8.73 | 5.29
RPMI 5 mM glucose + 10% FBS, 46.1 µM | 2.42 | 5.6 | 3.81
RPMI 5 mM glucose + 10% dialyzed FBS, 0.000781 µM | 79.3 | 86.9 | 77.8
RPMI 5 mM glucose + 10% dialyzed FBS, 0.00234 µM | 77.8 | 97.1 | 86.7
RPMI 5 mM glucose + 10% dialyzed FBS, 0.00702 µM | 88 | 95.4 | 87.7
RPMI 5 mM glucose + 10% dialyzed FBS, 0.0211 µM | 85.2 | 101 | 85.8
RPMI 5 mM glucose + 10% dialyzed FBS, 0.0632 µM | 86.5 | 102 | 77.5
RPMI 5 mM glucose + 10% dialyzed FBS, 0.19 µM | 46.8 | 46.7 | 21.9
RPMI 5 mM glucose + 10% dialyzed FBS, 0.569 µM | 56 | 59.4 | 19.7
RPMI 5 mM glucose + 10% dialyzed FBS, 1.71 µM | 6.77 | 7.71 | 8.34
RPMI 5 mM glucose + 10% dialyzed FBS, 5.12 µM | 5.66 | 7.35 | 8.01
RPMI 5 mM glucose + 10% dialyzed FBS, 15.4 µM | 4.24 | 8.39 | 7.59
RPMI 5 mM glucose + 10% dialyzed FBS, 46.1 µM | 2.51 | 5.02 | 5.43

AUC of viability dose-response curve
Conditions | HPLM + 10% dialyzed FBS | RPMI 5 mM glucose + 10% FBS | RPMI 5 mM glucose + 10% dialyzed FBS
P12-Ichikawa [5] | 274 | 279 | 270
SEM cells [6] | 236 | 180 | 210

O=P1(NCCCl)OCCCN1CCCl (configuration not stated)
cell viability [%]
Conditions | NOMO1 [2] | P12-Ichikawa [3] | SEM cells [1]
HPLM + 10% dialyzed FBS, 0.000781 µM | 90.5 | 84 | 88.9
HPLM + 10% dialyzed FBS, 0.00234 µM | 102 | 94 | 85.6
HPLM + 10% dialyzed FBS, 0.00702 µM | 96.8 | 88.4 | 92.8
HPLM + 10% dialyzed FBS, 0.0211 µM | 104 | 91.6 | 101
HPLM + 10% dialyzed FBS, 0.0632 µM | 97.7 | 92.9 | 76.1
HPLM + 10% dialyzed FBS, 0.19 µM | 84.6 | 88.1 | 81.2
HPLM + 10% dialyzed FBS, 0.569 µM | 119 | 95.1 | 78
HPLM + 10% dialyzed FBS, 1.71 µM | 117 | 93.9 | 84.7
HPLM + 10% dialyzed FBS, 5.12 µM | 99.7 | 91.8 | 81.3
HPLM + 10% dialyzed FBS, 15.4 µM | 109 | 62.5 | 63
HPLM + 10% dialyzed FBS, 46.1 µM | 76.1 | 94.2 | 12.5
RPMI 5 mM glucose + 10% FBS, 0.000781 µM | 82.3 | 82.8 | 92.6
RPMI 5 mM glucose + 10% FBS, 0.00234 µM | 88 | 76.7 | 99.5
RPMI 5 mM glucose + 10% FBS, 0.00702 µM | 79.4 | 81.5 | 101
RPMI 5 mM glucose + 10% FBS, 0.0211 µM | 77.2 | 85.6 | 103
RPMI 5 mM glucose + 10% FBS, 0.0632 µM | 77 | 88.8 | 96.8
RPMI 5 mM glucose + 10% FBS, 0.19 µM | 89.2 | 86.7 | 94.4
RPMI 5 mM glucose + 10% FBS, 0.569 µM | 83.5 | 87.9 | 97.1
RPMI 5 mM glucose + 10% FBS, 1.71 µM | 86.8 | 86.1 | 94.2
RPMI 5 mM glucose + 10% FBS, 5.12 µM | 91.1 | 92 | 105
RPMI 5 mM glucose + 10% FBS, 15.4 µM | 76.8 | 93.2 | 57.3
RPMI 5 mM glucose + 10% FBS, 46.1 µM | 79.4 | 66.7 | 7.96
RPMI 5 mM glucose + 10% dialyzed FBS, 0.000781 µM | 86.9 | 77 | 87.6
RPMI 5 mM glucose + 10% dialyzed FBS, 0.00234 µM | 87.6 | 77.2 | 86
RPMI 5 mM glucose + 10% dialyzed FBS, 0.00702 µM | 81.1 | 75.3 | 94.8
RPMI 5 mM glucose + 10% dialyzed FBS, 0.0211 µM | 85.3 | 78.1 | 81.9
RPMI 5 mM glucose + 10% dialyzed FBS, 0.0632 µM | 85.6 | 84.8 | 65.5
RPMI 5 mM glucose + 10% dialyzed FBS, 0.19 µM | 87.9 | 82.7 | 69.1
RPMI 5 mM glucose + 10% dialyzed FBS, 0.569 µM | 87.4 | 85.9 | 60.6
RPMI 5 mM glucose + 10% dialyzed FBS, 1.71 µM | 97.5 | 85.2 | 69.5
RPMI 5 mM glucose + 10% dialyzed FBS, 5.12 µM | 84.6 | 87.2 | 66.4
RPMI 5 mM glucose + 10% dialyzed FBS, 15.4 µM | 98.5 | 87 | 45
RPMI 5 mM glucose + 10% dialyzed FBS, 46.1 µM | 78.1 | 79.8 | 10.8

P12-Ichikawa [5]
Conditions | AUC of viability dose-response curve
HPLM + 10% dialyzed FBS | 424
RPMI 5 mM glucose + 10% FBS | 402
RPMI 5 mM glucose + 10% dialyzed FBS | 391

CC/C(=C(/CC)c1ccc(O)cc1)c1ccc(O)cc1
AUC of viability dose-response curve
Conditions | NOMO1 [4] | P12-Ichikawa [5] | SEM cells [6]
HPLM + 10% dialyzed FBS | 442 | 463 | 473
RPMI 5 mM glucose + 10% FBS | 465 | 457 | 460
RPMI 5 mM glucose + 10% dialyzed FBS | 429 | 436 | 421

C/C(=C\C(=O)Nc1ccccc1C(=O)O)c1ccc2ccccc2c1
AUC of viability dose-response curve
Conditions | HPLM + 10% dialyzed FBS | RPMI 5 mM glucose + 10% FBS | RPMI 5 mM glucose + 10% dialyzed FBS
P12-Ichikawa [5] | 461 | 461 | 456
SEM cells [6] | 435 | 447 | 463
